PMC9570838, “JND4135, a New Type II TRK Inhibitor, Overcomes TRK xDFG and Other Mutation Resistance In Vitro and In Vivo” (Molecules, 2022)

Legend:
TRKA = target: T1, TRKA (Homo sapiens, UniProt P04629); assay: FRET-based Z'-Lyte kinase assay; assay type: biochemical; settings: mean ± SD, read-out: IC50 TRKA kinase inhibition
T1 construct: purchased Invitrogen

[1] = system: TRKs-xDGF mutants TRKA-G667C, TRKB-G709C and TRKC-G696C in stable BaF3 models; assay: Western blot of xDFG mutant TRK signal pathway (Figure S2); assay type: cell-based, Murine; settings: 6 h
Protocol: (§1) Cells were treated with various concentrations of each tested compound for a designated time. Then cells were lysed using 1 × SDS sample lysis buffer (CST recommended) with protease and phosphatase inhibitors. […] The films were blocked with 5% fat-free milk in TBS solution containing 0.5% Tween-20 for 4 h at room temperature, then incubated with the corresponding primary antibody (1:1000–1:200) overnight at 4 °C. After washing with TBST, HRP-conjugated secondary antibody was incubated for 2 h. The protein signals were visualized by ECL Western Blotting Detection Kit (Thermo Scientific, Waltham, MA, USA), and detected with Amersham Imager 600 system (GE, Boston, MA, USA).

[2] = system: parental BaF3 cells (phospho-ERK); assay: Western blot in parental BaF3 cells (Figure S1); assay type: cell-based, Murine; settings: parental BaF3 cells driven by IL-3 (Figure S1)
Protocol: as §1

[3] = system: BaF3-CD74-TRKA-G667C xenograft; assay: BaF3-CD74-TRKA-G667C xenograft model; assay type: in vivo; settings: for TGI (tumor growth inhibition): intraperitoneally once daily, 12 consecutive days
[4] = Pharmacokinetics in rats (Table S4); assay type: in vivo
Parental BaF3 (+IL3) = assay: BaF3 cell proliferation, CCK-8 assay; settings: Mus musculus, BaF3, 72 h, read-out: IC50 (nM ± SD) Parental BaF3 (+IL3)
Protocol: (§2) Murine BaF3 cells were purchased from JRCB cell bank. The BaF3 cell lines, which stably express natively-fused TRKA/B/C or various point mutants, were self-established by following previously described procedures. Briefly, NTRK genes were totally synthesized and cloned into pCDNA3.1(+) vectors (Invitrogen, Carlsbad, CA, USA). […] Stable strains were established by selection of cells 2 weeks post-transfection with 800 μg/mL G418 (Merck, Whitehouse Station, NJ) and further selection after the withdrawal of interleukin-3 (IL-3, R&D) for 2 weeks. All of BaF3 stable cell lines were verified by DNA sequencing, protein expression and anti-proliferation activity against positive drugs. […] All cells were grown at 37 °C in a humidified 5% CO2 atmosphere.
(§3) Cells were placed in 96-well plates (5000~8000/well) in complete medium. […] IC50 values were calculated by concentration-response curve fitting using GraphPad Prism 5.0 software. Each IC50 value is expressed as mean ± SD.

BaF3 MPRIP-TRKA = assay: BaF3 cell proliferation, CCK-8 assay; settings: Mus musculus, BaF3, 72 h, read-out: IC50 (nM ± SD) WT MPRIP-TRKA
Protocol: as §2, §3

BaF3 CD74-TRKA = assay: BaF3 cell proliferation, CCK-8 assay; settings: Mus musculus, BaF3, 72 h, read-out: IC50 (nM ± SD) WT CD74-TRKA
Protocol: as §2, §3

BaF3 QKI-TRKB = assay: BaF3 cell proliferation, CCK-8 assay; settings: Mus musculus, BaF3, 72 h, read-out: IC50 (nM ± SD) WT QKI-TRKB
Protocol: as §2, §3

BaF3 ETV6-TRKB = assay: BaF3 cell proliferation, CCK-8 assay; settings: Mus musculus, BaF3, 72 h, read-out: IC50 (nM ± SD) WT ETV6-TRKB
Protocol: as §2, §3

BaF3 EML4-TRKC = assay: BaF3 cell proliferation, CCK-8 assay; settings: Mus musculus, BaF3, 72 h, read-out: IC50 (nM ± SD) WT EML4-TRKC
Protocol: as §2, §3

BaF3 CD74-TRKA-G595R = assay: BaF3 cell proliferation, CCK-8 assay; settings: Mus musculus, BaF3, 72 h, read-out: IC50 (nM ± SD) Solvent Front CD74-TRKA-G595R
Protocol: as §2, §3

BaF3 ETV6-TRKB-G639R = assay: BaF3 cell proliferation, CCK-8 assay; settings: Mus musculus, BaF3, 72 h, read-out: IC50 (nM ± SD) Solvent Front ETV6-TRKB-G639R
Protocol: as §2, §3

BaF3 CD74-TRKA-F589L = assay: BaF3 cell proliferation, CCK-8 assay; settings: Mus musculus, BaF3, 72 h, read-out: IC50 (nM ± SD) Gatekeeper CD74-TRKA-F589L
Protocol: as §2, §3

BaF3 ETV6-TRKB-F633L = assay: BaF3 cell proliferation, CCK-8 assay; settings: Mus musculus, BaF3, 72 h, read-out: IC50 (nM ± SD) Gatekeeper ETV6-TRKB-F633L
Protocol: as §2, §3

BaF3 ETV6-TRKC-F617L = assay: BaF3 cell proliferation, CCK-8 assay; settings: Mus musculus, BaF3, 72 h, read-out: IC50 (nM ± SD) Gatekeeper ETV6-TRKC-F617L
Protocol: as §2, §3

BaF3 CD74-TRKA-G667C = assay: BaF3 cell proliferation, CCK-8 assay; settings: Mus musculus, BaF3, 72 h, read-out: IC50 (nM ± SD) xDFG CD74-TRKA-G667C
Protocol: as §2, §3

BaF3 ETV6-TRKB-G709C = assay: BaF3 cell proliferation, CCK-8 assay; settings: Mus musculus, BaF3, 72 h, read-out: IC50 (nM ± SD) xDFG ETV6-TRKB-G709C
Protocol: as §2, §3

BaF3 ETV6-TRKC-G696C = assay: BaF3 cell proliferation, CCK-8 assay; settings: Mus musculus, BaF3, 72 h, read-out: IC50 (nM ± SD) xDFG ETV6-TRKC-G696C
Protocol: as §2, §3

[5] = system: BaF3 cells harboring wild-type TRKA/B/C; assay: BaF3 cell proliferation, summary over wild-type lines; settings: Mus musculus, BaF3, read-out: IC50 range in BaF3 cells harboring wild-type TRKA/B/C
From the text: Murine BaF3 cells were purchased from JRCB cell bank. The BaF3 cell lines, which stably express natively-fused TRKA/B/C or various point mutants, were self-established by following previously described procedures. Briefly, NTRK genes were totally synthesized and cloned into pCDNA3.1(+) vectors (Invitrogen, Carlsbad, CA, USA). The pCDNA3.1(+) plasmids containing different NTRK-fusion genes were introduced into BaF3 cells by electroporation (Amaxa Nucleofector II device) using the “Amaxa Cell Line Nucleofector Kit V” (VCA-1003) according to the manufacturer’s directions. Stable strains were established by selection of cells 2 weeks post-transfection with 800 μg/mL G418 (Merck, Whitehouse Station, NJ) and further selection after the withdrawal of interleukin-3 (IL-3, R&D) for 2 weeks. All of BaF3 stable cell lines were verified by DNA sequencing, protein expression and anti-proliferation activity against positive drugs. […]
as §3

[6] = system: BaF3 cells with gatekeeper mutations (TRKA^F589L, TRKB^F663L, TRKC^F617L); assay: BaF3 cell proliferation, summary over gatekeeper lines; settings: Mus musculus, BaF3, read-out: IC50 in cells with gatekeeper mutations
Protocol: as §2, §3

[7] = system: BaF3 cells with solvent front mutations (TRKA^G595R, TRKB^G639R, TRKC^G623R); assay: BaF3 cell proliferation, summary over solvent front lines; settings: Mus musculus, BaF3, read-out: IC50 range in cells with solvent front mutations
Protocol: as §2, §3

T1 sequence (P04629 33-796): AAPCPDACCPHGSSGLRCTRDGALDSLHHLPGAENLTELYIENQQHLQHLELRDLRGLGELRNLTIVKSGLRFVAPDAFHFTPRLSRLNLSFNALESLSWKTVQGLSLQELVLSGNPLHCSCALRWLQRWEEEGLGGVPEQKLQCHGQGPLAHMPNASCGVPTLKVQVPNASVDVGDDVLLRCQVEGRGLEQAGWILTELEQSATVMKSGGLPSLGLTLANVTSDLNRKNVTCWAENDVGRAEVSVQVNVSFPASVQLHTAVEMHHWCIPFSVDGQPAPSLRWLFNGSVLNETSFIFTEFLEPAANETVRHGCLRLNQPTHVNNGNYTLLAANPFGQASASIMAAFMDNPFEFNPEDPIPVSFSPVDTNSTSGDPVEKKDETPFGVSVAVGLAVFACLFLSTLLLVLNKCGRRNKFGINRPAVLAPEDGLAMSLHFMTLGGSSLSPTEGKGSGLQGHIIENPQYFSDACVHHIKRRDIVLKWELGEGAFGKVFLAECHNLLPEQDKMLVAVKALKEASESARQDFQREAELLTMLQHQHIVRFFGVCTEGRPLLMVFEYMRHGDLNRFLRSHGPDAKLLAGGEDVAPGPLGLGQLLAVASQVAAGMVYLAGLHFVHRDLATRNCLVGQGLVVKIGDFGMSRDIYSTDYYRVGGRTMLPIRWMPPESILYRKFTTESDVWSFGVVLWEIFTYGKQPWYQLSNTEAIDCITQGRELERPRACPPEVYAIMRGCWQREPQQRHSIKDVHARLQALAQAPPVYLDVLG

In the case of `Cc1c(C#Cc2cnc3cnc(-c4ccc(N)cc4)cn23)cccc1C(=O)Nc1cc(CN2CCN(C)CC2)cc(C(C)C)c1` [JND4135, 3-((6-(4-aminophenyl)imidazo[1,2-a]pyrazin-3-yl)ethynyl)-N-(3-isopropyl-5-((4-methylpiperazin-1-yl)methyl)phenyl)-2-methylbenzamide], the IC50 (TRKA) is reported as 2.79 ± 1.17 nM, the “dose that effectively inhibits the activation of TRKs-xDGF mutants” value [1] is reported as 8.0 nM and the “effect on phospho-ERK levels” value [2] is reported as “increased the phospho-ERK levels”. For the same compound, the “TGI (tumor growth inhibition)” value ([3]; 20 mg/kg) was 34.2%, the “TGI (tumor growth inhibition)” value ([3]; 40 mg/kg) was 81.0% and the “tolerability (mortality, body weight)” value ([3]; 20 and 40 mg/kg/day, 12 days) was “no mortality or significant body weight loss”. The “activation of TRKA and downstream molecules PLCγ-1 and ERK in tumor tissues” value ([3]; tumor tissues at end of treatment, Western blot) was “effectively inhibit”, the “absorption via oral administration” value [4] was “almost no absorption” and the IC50 (Parental BaF3 (+IL3)) was 1950 ± 25.1 nM. The IC50 (BaF3 MPRIP-TRKA) was 7.1 ± 2.3 nM, the IC50 (BaF3 CD74-TRKA) was 10.4 ± 3.2 nM and the IC50 (BaF3 QKI-TRKB) was 2.4 ± 0.6 nM. The IC50 (BaF3 ETV6-TRKB) was 23.1 ± 5.9 nM, the IC50 (BaF3 EML4-TRKC) was 13.2 ± 2.6 nM and the IC50 (BaF3 CD74-TRKA-G595R) was 33.7 ± 7.1 nM. It also gave an IC50 (BaF3 ETV6-TRKB-G639R) of 10.1 ± 3.9 nM, an IC50 (BaF3 CD74-TRKA-F589L) of 75 ± 12.7 nM and an IC50 (BaF3 ETV6-TRKB-F633L) of 178 ± 4.3 nM. For the same compound, the IC50 (BaF3 ETV6-TRKC-F617L) was 37.3 ± 14 nM, the IC50 (BaF3 CD74-TRKA-G667C) was 1.4 ± 0.2 nM and the IC50 (BaF3 ETV6-TRKB-G709C) was 18.7 ± 2.9 nM. It also gave an IC50 (BaF3 ETV6-TRKC-G696C) of 1.3 ± 0.7 nM, an IC50 [5] of 2.4 to 23.1 nM and an IC50 [6] of 37.3 to 178 nM. It also gave an IC50 [7] of 9.4 to 33.7 nM.
